pIC50: −log10 of the molar value.
Legend:
[1] = system: human B cell leukemia cells; experiment: Proliferation of a panel of human B cell leukemia cells (CCK-8); type: cell-based; conditions: 72 h, range over the cell panel, read-out: IC50s, proliferation
Description: Cell viability was assessed using Cell Counting Kit (CCK-8, Dojindo, Japan) following the manufacturer's protocol and OD values were measured with a Spectramax M5 plate reader (Molecular Devices, Sunnyvale, CA)[45].
Figure S3: X-370 inhibited proliferation of human B cell leukemia cells. Cells were seeded in 96 -well plate and treated with serial diluted X-370 for 72 h. cell viability was then assessed by CCK-8 reagent and inhibitory rate was calculated. […]
antiproliferative activity of X-370 against these cells. […]

[2] = system: Raji cells; experiment: Annexin V-FITC/PI apoptosis assay (FACS); type: cell-based, human; conditions: 72 h
Description: Figure 3 PI3Kδ inhibition led to blockade of B cell leukemia cells proliferation via induction of cell cycle arrest and apoptosis Raji cells treated with X-370 for indicated times and at serial diluted concentrations were subjected to Annexin V-FITC/PI staining (A) and PI staining (B) and FACS analysis to show cell apoptosis and cell cycle distribution respectively. (C) X-370 inhibited proliferation of human leukemia primary cells. Freshly isolated human primary mononuclear cells from bone marrow samples of patients were treated with X-370 for 72 h and cell viability was assayed using CCK-8 assay. IC50s of each sample were plotted where 10 μM was assigned to specimens with IC50 >10 μM. Each symbol represents an individual patient sample. […]
Apoptosis was measured with annexin V–fluorescein isothiocyanate (FITC) /Propidium iodide (PI) kit (KeyGEN Biotech, Nanjing, China) as previously described. Fluorescence was acquired with a FACSCalibur instrument (BD Biosciences, CA) and analyzed using BD CellQuest Pro software.

[3] = molecular target: PI3Kδ (Homo sapiens, UniProt O00329); experiment: PI3-Kinase HTRF assay with increasing ATP; type: biochemical; set-up: GST; made in house; host or cells: Sf9 insect cells; conditions: IC50 increasing in concert with ATP levels
Description: Utilizing the crystal structure of PI3Kδ, we designed and synthesized a series of compounds in an effort to discover new potent and selective PI3Kδ inhibitors, which bind to PI3Kδ differently from CAL-101. […] The benzimidazole group of X-370 extends into the affinity pocket, where its nitrogen acts as a hydrogen bond acceptor for the primary amine of Lys779. The difluoromethyl group of X-370 points toward Pro758 in the hydrophobic affinity pocket. Instead of wedging between Met752 and Trp760, a binding mode utilized by CAL-101 to generate specificity against PI3Kδ (Figure S1), the pyrrole group of X-370 presses tightly against Trp760. These specific interactions of X-370 with p110δ confer a selective and potent inhibition of PI3Kδ. As expected, X-370 inhibited the kinase activity of PI3Kδ in an ATP-competitive manner, with IC50 increasing in concert with ATP levels (Figure 1C), confirming the binding of X-370 in the ATP pocket. […] More than 1000-fold selectivity was seen against other lipid kinases tested including PI3KC2α, PI3KC2γ, PIP4K2α, PIP5K1α and PIP5K1γ. […]
In vitro kinase profile assays were analyzed by the Kinase Profiler Service (Millipore, United Kingdom) following its guidelines. […] The PI3K kinase activity was determined in the increasing concentration of ATP and X-370 with PI3-Kinase HTRF™ Assay kit (Millipore) as described previously.

Sequence of PI3Kδ (O00329 whole entry): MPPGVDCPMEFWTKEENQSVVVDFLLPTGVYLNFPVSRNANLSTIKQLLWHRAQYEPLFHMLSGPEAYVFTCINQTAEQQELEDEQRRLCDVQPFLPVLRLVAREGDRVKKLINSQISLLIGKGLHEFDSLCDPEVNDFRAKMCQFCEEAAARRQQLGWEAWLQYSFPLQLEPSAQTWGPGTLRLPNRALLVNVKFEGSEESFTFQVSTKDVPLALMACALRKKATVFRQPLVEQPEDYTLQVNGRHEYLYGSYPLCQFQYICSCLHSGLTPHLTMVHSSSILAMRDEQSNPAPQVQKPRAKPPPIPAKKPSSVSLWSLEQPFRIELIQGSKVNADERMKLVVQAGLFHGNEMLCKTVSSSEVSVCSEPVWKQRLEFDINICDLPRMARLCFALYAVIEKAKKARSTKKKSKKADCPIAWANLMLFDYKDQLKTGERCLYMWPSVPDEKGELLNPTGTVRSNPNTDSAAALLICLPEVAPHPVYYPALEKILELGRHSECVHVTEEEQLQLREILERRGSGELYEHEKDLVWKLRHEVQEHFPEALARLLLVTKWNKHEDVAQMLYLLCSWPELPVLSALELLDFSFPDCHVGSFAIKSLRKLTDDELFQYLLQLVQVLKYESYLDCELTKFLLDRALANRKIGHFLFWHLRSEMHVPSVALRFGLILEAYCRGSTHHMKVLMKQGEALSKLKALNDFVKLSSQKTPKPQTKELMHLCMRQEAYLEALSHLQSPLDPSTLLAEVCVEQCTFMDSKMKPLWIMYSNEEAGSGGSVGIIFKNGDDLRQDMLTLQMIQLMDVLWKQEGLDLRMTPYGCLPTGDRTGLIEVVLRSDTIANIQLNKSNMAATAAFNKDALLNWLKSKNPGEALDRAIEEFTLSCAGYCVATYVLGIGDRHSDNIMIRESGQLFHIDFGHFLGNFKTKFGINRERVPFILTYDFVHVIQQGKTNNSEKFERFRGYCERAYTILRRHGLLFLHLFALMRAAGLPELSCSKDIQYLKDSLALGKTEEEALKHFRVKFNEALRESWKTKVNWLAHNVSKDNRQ
Sequence of PI3Kδ (P27986 whole entry partner): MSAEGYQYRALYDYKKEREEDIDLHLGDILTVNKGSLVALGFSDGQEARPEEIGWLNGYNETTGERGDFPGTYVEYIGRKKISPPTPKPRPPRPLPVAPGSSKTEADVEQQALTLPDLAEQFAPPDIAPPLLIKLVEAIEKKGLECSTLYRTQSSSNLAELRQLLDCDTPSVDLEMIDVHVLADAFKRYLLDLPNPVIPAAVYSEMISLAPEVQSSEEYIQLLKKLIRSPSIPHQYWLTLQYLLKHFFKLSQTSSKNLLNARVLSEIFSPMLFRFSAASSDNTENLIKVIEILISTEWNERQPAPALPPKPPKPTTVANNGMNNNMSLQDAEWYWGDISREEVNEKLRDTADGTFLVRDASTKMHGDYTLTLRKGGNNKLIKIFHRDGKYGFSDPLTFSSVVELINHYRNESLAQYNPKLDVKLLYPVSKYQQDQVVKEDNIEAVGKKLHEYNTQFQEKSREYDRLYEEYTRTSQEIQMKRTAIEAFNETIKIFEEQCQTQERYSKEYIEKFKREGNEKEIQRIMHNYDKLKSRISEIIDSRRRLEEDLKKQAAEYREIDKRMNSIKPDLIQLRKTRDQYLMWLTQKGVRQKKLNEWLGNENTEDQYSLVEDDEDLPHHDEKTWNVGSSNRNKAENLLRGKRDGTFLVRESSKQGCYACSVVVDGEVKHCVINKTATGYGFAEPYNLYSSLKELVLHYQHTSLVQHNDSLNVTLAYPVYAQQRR

SMILES: O=C(N1CCCC1)N1CCC(n2cnc3c(-n4c(C(F)F)nc5ccccc54)nc(N4CCOCC4)nc32)CC1 [X-370]
- pIC50 [1]: 5.20 to 7.40
- cells that underwent apoptosis ([2]; 10 μM): about 28%
- concentration at which apoptotic cells were detectable [2]: ≥ 5 µM
- manner of inhibition of PI3Kδ kinase activity [3]: ATP-competitive

Source: paper PMC4279406, “Simultaneous targeting of PI3Kδ and a PI3Kδ-dependent MEK1/2-Erk1/2 pathway for therapy in pediatric B-cell acute lymphoblastic leukemia” (Oncotarget, 2014)
